Reference: patent publication US12157730B2, “Heteroaryl derivative, method for producing same, and pharmaceutical composition comprising same as effective component” (VORONOI INC., priority 2019, dated 2024)

Target: T1, Ba/F3 cell EGFR Exon20 ins NPH (Homo sapiens, UniProt P00533, INS773NPH)
T1 construct: expressed in transfected cells; host or cells: Ba/F3
Test: Ba/F3 cell proliferation suppression, EGFR Exon20 ins NPH
Format: cell-based
Details: GI50 class; Ba/F3 cell line with NPH inserted at Exon20 of EGFR; 72 hours
Procedure, shortened: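 72 h compound exposure, 0.3 nM–50 um (12 points, 3:1 dilution in DMSO); viability by CellTiter-Glo luminescence. Ba/F3 medium: RPMI-1640, 10% FBS, 5 ng/ml IL-3, 1 ug/ml puromycin for transduced cells. GI50 vs control, n=3.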

Structure (SMILES)	Ba/F3 (NPH) Activity
C=CC(=O)Nc1cc(Nc2cc(N3OCC[C@@H]3c3cccc(C#N)c3)ncn2)c(OC)cc1N1CCN(CC)CC1 [compound 396, N-(5-((6-((R)-3-(3-cyanophenyl)isoxazolidine-2-yl)pyrimidine-4-yl)amino)-2-(4-ethylpiperazine-1-yl)-4-methoxyphenyl) acrylamide]	B (50 nM ≤ GI50 < 500 nM)
C=CC(=O)Nc1cc(Nc2cc(N3OCCC3(C)c3ccccc3)ncn2)c(OC)cc1N1CCC(N2CCN(CC)CC2)CC1 (centres unmarked) [Example 261, N-(2-(4-(4-ethylpiperazine-1-yl)piperidine-1-yl)-4-methoxy-5-((6-(3-methyl-3-phenylisoxazolidine-2-yl)pyrimidine-4-yl)amino)phenyl) acrylamide]	C (500 nM ≤ GI50 < 5000 nM)
C=CC(=O)Nc1cc(Nc2cc(N3OCC[C@@H]3c3cccc(F)c3)ncn2)c(OC)cc1N1CCC(N2C[C@@H]3C[C@H]2CN3C)CC1 [compound 837, N-(5-((6-((R)-3-(3-fluorophenyl)isoxazolidine-2-yl)pyrimidine-4-yl)amino)-4-methoxy-2-(4-((1S, 4S)-5-methyl-2,5-diazabicyclo[2.2.1]heptane-2-yl)piperidine-1-yl)phenyl)acrylamide]	A (GI50 < 50 nM)
C=CC(=O)Nc1cc(Nc2cc(N3OCC[C@@H]3c3cccc(Cl)c3)ncn2)c(OC)cc1N1CC[C@H](N(C)C)C1 [compound 468, N-(5-((6-((R)-3-(3-chlorophenyl)isoxazolidine-2-yl)pyrimidine-4-yl)amino)-2-((S)-3-(dimethylamino)pyrolidine-1-yl)-4-methoxyphenyl) acrylamide]	A (GI50 < 50 nM)
C=CC(=O)Nc1cc(Nc2cc(N3OCC[C@@H]3Cc3cccnc3)ncn2)c(OC)cc1N1CCC(N2C[C@H]3C[C@@H]2CO3)CC1 [compound 987, N-(2-(4-((1R,4R)-2-oxa-5-azabicyclo [2.2.1]heptane-5-yl)piperidine-1-yl)-4-methoxy-5-((6-((S)-3-(pyridine-3-ylmethyl)isoxazolidine-2-yl)pyrimidine-4-yl)amino)phenyl)acrylamide]	C (500 nM ≤ GI50 < 5000 nM)
C=CC(=O)Nc1cc(Nc2cc(N3OCC[C@@H]3c3cccc(Cl)c3Cl)ncn2)c(OC)cc1N1CCN(C2CCN(C)CC2)CC1 [compound 562, N-(5-((6-((R)-3-(2,3-dichlorophenyl)isoxazolidine-2-yl)pyrimidine-4-yl)amino)-4-methoxy-2-(4-(1-methylpiperidine-4-yl)piperazine-1-yl)phenyl) acrylamide]	B (50 nM ≤ GI50 < 500 nM)
C=CC(=O)Nc1cc(Nc2cc(N3OCC[C@H]3c3c(F)cccc3F)ncn2)c(OC)cc1N(C)CCN(C)C [compound 306, N-(5-((6-((S)-3-(2,6-difluorophenyl)isoxazolidine-2-yl)pyrimidine-4-yl)amino)-2-((2-(dimethylamino)ethyl)(methyl)amino)-4-methoxyphenyl) acrylamide]	B (50 nM ≤ GI50 < 500 nM)
C=CC(=O)Nc1cc(Nc2cc(N3OCC[C@@H]3Cc3ccccc3)ncn2)c(OC)cc1N1CC2CC1CN2C (stereo partly drawn) [compound 969, N-(5-((6-((S)-3-benzylisoxazolidine-2-yl)pyrimidine-4-yl)amino)-4-methoxy-2-(5-methyl-2,5-diazabicyclo[2.2.1]heptane-2-yl)phenyl) acrylamide]	A (GI50 < 50 nM)
C=CC(=O)Nc1cc(Nc2cc(N3OCC[C@@H]3Cc3ccccc3)ncn2)c(OC)cc1-n1ccnc1C [compound 960, N-(5-((6-((S)-3-benzylisoxazolidine-2-yl)pyrimidine-4-yl)amino)-4-methoxy-2-(2-methyl-1H-imidazole-1-yl)phenyl)acrylamide]	B (50 nM ≤ GI50 < 500 nM)
C=CC(=O)Nc1cc(Nc2cc(N3OCC[C@@H]3c3ccc(C)nc3)ncn2)c(OC)cc1N1C[C@@H]2C[C@H]1CO2 [Example 233, N-(2-((1S,4S)-2-oxa-5-azabicyclo[2.2.1]heptane-5-yl)-4-methoxy-5-((6-((R)-3-(6-methylpyridine-3-yl)isoxazolidine-2-yl)pyrimidine-4-yl)amino)phenyl) acrylamide]	C (500 nM ≤ GI50 < 5000 nM)
C=CC(=O)Nc1cc(Nc2cc(N3OCC[C@@H]3Cc3cccc(Cl)c3C)ncn2)c(OC)cc1N1CCC(N2C[C@@H]3C[C@H]2CO3)CC1 [compound 1029, N-(2-(4-((1S,4S)-2-oxa-5-azabicyclo [2.2.1]heptane-5-yl)piperidine-1-yl)-5-((6-((S)-3-(3-chloro-2-methylbenzyl)isoxazolidine-2-yl)pyrimidine-4-yl)amino)-4-methoxyphenyl) acrylamide]	A (GI50 < 50 nM)
C=CC(=O)Nc1cc(Nc2cc(N3OCC[C@H]3c3c(F)cccc3F)ncn2)c(OC)cc1N1CCC(N2CCC(N(C)C)CC2)CC1 [compound 369, N-(5-((6-((S)-3-(2,6-difluorophenyl)isoxazolidine-2-yl)pyrimidine-4-yl)amino)-2-(4-(dimethylamino)-[1,4'-bipiperidine]-1'-yl)-4-methoxyphenyl) acrylamide]	C (500 nM ≤ GI50 < 5000 nM)
C=CC(=O)Nc1cc(Nc2cc(N3OCC[C@@H]3c3ccccc3)ncn2)c(OC)cc1N1CCN(CCN(C)C)CC1 [Example 278, N-(2-(4-(2-(dimethylamino)ethyl)piperazine-1-yl)-4-methoxy-5-((6-((R)-3-phenylisoxazolidine-2-yl)pyrimidine-4-yl)amino)phenyl) acrylamide]	A (GI50 < 50 nM)
C#Cc1cccc([C@H]2CCON2c2cc(Nc3cc(NC(=O)C=C)c(N4CCC(N5C[C@H]6C[C@@H]5CO6)CC4)cc3OC)ncn2)c1 [compound 619, N-(2-(4-((1R,4R)-2-oxa-5-azabicyclo [2.2.1]heptane-5-yl)piperidine-1-yl)-5-((6-((R)-3-(3-ethynylphenyl)isoxazolidine-2-yl)pyrimidine-4-yl)amino)-4-methoxyphenyl) acrylamide]	A (GI50 < 50 nM)
C=CC(=O)Nc1cc(Nc2cc(N3OCC[C@@H]3c3cc(F)ccc3F)ncn2)c(OC)cc1N1CCC(N2CC3CC2CN3C)CC1 (stereo partly drawn) [compound 877, N-(5-((6-((R)-3-(2,5-difluorophenyl)isoxazolidine-2-yl)pyrimidine-4-yl)amino)-4-methoxy-2-(4-(5-methyl-2,5-diazabicyclo [2.2.1]heptane-2-yl)piperidine-1-yl)phenyl)acrylamide]	A (GI50 < 50 nM)
C=CC(=O)Nc1cc(Nc2cc(N3OCC[C@@H]3Cc3cccc(Cl)c3Cl)ncn2)c(OC)cc1N1CCC(N2CCOCC2)CC1 [compound 979, N-(5-((6-((S)-3-(2,3-dichlorobenzyl)isoxazolidine-2-yl)pyrimidine-4-yl)amino)-4-methoxy-2-(4-morpholinopiperidine-1-yl)phenyl)acrylamide]	A (GI50 < 50 nM)
C=CC(=O)Nc1cc(Nc2cc(N3OCC[C@@H]3c3ccc(F)c(Cl)c3)ncn2)c(OC)cc1N1CCC(N2CCN(C3CC3)C(C)(C)C2)CC1 [Example 181, N-(5-((6-((R)-3-(3-chloro-4-fluorophenyl)isoxazolidine-2-yl)pyrimidine-4-yl)amino)-2-(4-(4-cyclopropyl-3,3-dimethylpiperazine-1-yl)piperidine-1-yl)-4-methoxyphenyl) acrylamide]	A (GI50 < 50 nM)
C=CC(=O)Nc1cc(Nc2cc(N3OCC[C@@H]3c3cccc(Cl)c3)ncn2)c(OC)cc1N(C)CCN(C)C [compound 359, N-(5-((6-((R)-3-(3-chlorophenyl)isoxazolidine-2-yl)pyrimidine-4-yl)amino)-2-((2-(dimethylamino)ethyl)(methyl)amino)-4-methoxyphenyl) acrylamide]	A (GI50 < 50 nM)
C=CC(=O)Nc1cc(Nc2cc(N3OCC[C@@H]3c3cccc(F)c3F)ncn2)c(OC)cc1N1CCN(C)C[C@H]1C [compound 885, N-(5-((6-((R)-3-(2,3-difluorophenyl)isoxazolidine-2-yl)pyrimidine-4-yl)amino)-2-((R)-2,4-dimethylpiperazine-1-yl)-4-methoxyphenyl) acrylamide]	A (GI50 < 50 nM)
C=CC(=O)Nc1cc(Nc2cc(N3OCC[C@@H]3c3ccc(C)nc3)ncn2)c(OC)cc1N1CC[C@H](N(C)C)C1 [Example 222, N-(2-((S)-3-(dimethylamino)pyrolidine-1-yl)-4-methoxy-5-((6-((R)-3-(6-methylpyridine-3-yl)isoxazolidine-2-yl)pyrimidine-4-yl)amino)phenyl)acrylamide]	B (50 nM ≤ GI50 < 500 nM)
C=CC(=O)Nc1cc(Nc2cc(N3OCC[C@@H]3c3cccc4ccccc34)ncn2)c(OC)cc1N1CCC(N(C)C)CC1 [compound 442, N-(2-(4-methoxy-5-((6-(dimethylamino)piperidine-1-yl)-4-((R)-3-(naphthalene-1-yl)isoxazolidine-2-yl)pyrimidine-4-yl)amino)phenyl) acrylamide]	A (GI50 < 50 nM)
C=CC(=O)Nc1cc(Nc2cc(N3OCC[C@@H]3c3cccc(Cl)c3C)ncn2)c(OC)cc1N1CCC(N2CCN(CC)CC2)CC1 [compound 487, N-(5-((6-((R)-3-(3-chloro-2-methylphenyl)isoxazolidine-2-yl)pyrimidine-4-yl)amino)-2-(4-(4-ethylpiperazine-1-yl)piperidine-1-yl)-4-methoxyphenyl) acrylamide]	A (GI50 < 50 nM)
C=CC(=O)Nc1cc(Nc2cc(N3OCC[C@@H]3c3cc(F)cc(F)c3)ncn2)c(OC)cc1N1C[C@H]2C[C@@H]1CO2 [compound 436, N-(2-((1R,4R)-2-oxa-5-azabicyclo[2.2.1]heptane-5-yl)-5-((6-((R)-3-(3,5-difluorophenyl)isoxazolidine-2-yl)pyrimidine-4-yl)amino)-4-methoxyphenyl) acrylamide]	B (50 nM ≤ GI50 < 500 nM)
